Several values for one entry are separate records, joined by “and”; a condition that tells them apart may be missing. Equal entries are not always repeated. Square brackets hold non-standard residues; d marks the D form. Peptide text beside a SMILES is read from it.
Tests used:
[1] = tested on: t-tau; assay: CSF t-tau, Lumipulse immunoassay; type: in vivo, human; details: Day 28, n=9, 300 mg q.d. oral 28 d
Experimental: (§1) The effect of PRI-002 on cognition and function was tested by the CERAD+ battery and CDR-SB at baseline, Day 28, and Day 56, exploratory endpoints included the change of biomarkers (p-tau, t-tau, Aβ 1-40, Aβ 1-42 and Aβ oligomers) in CSF, blood plasma; change in CERAD+ test battery and CDR-SB scores.

[2] = tested on: Aβ oligomers; assay: CSF Aβ oligomers, sFIDA technology; type: in vivo, human
Experimental: as §1

**Q.** What does the source list for CC(C)C[C@@H](NC(=O)[C@H](NC(=O)[C@H]1CCCN1)[C@H](C)O)C(=O)N[C@H](Cc1c[nH]cn1)C(=O)N[C@@H](C(=O)N[C@H](Cc1c[nH]cn1)C(=O)N[C@H](CC(N)=O)C(=O)N[C@H](CCCNC(=N)N)C(=O)N[C@H](CCCNC(=N)N)C(=O)N[C@H](CCCNC(=N)N)C(=O)N[C@H](CCCNC(=N)N)C(=O)N[C@H](CCCNC(=N)N)C(N)=O)[C@H](C)O [PRI-002] (H-[dP][dT][dL][dH][dT][dH][dN][dR][dR][dR][dR][dR]-NH2; N-terminus and C-terminus assumed)?
**A.** t-tau, Mean [1]: 698.7 pg/mL; Aβ42 oligomers, Mean ([2]; CSF, Day 28, n=9, 300 mg q.d. oral 28 d): 4.747 fM; slope Abeta oligomers, individual patients ([2]; CSF, change from Day 1 to Day 28, one line per patient (n = 9), 300 mg q.d. oral 28 d): 1.237 and 0.635 and 0.4087 and 0.1526 and 0.3147 and -0.0095 and -0.4177 and -0.1322 and 0.7258; changes in p-tau, t-tau, Aβ 1-40, Aβ 1-42 and Aβ oligomers in CSF ([2]; Day 28 versus baseline and versus placebo, 300 mg q.d. oral 28 d): no significant changes; relationship between changes in Aβ oligomer concentrations and PRI-002 plasma levels at Day 1 ([2]; Spearman, two-tailed, n = 9): significant inverse relationship
